# Assays:
# KB = assay: Concentration that inhibits cell proliferation (KB cell line) after 72 h of incubation; format: functional, cell-based; conditions: Homo sapiens
# [1] = Concentration that inhibits the rate of cold-induced microtubule disassembly; format: functional
# [2] = Concentration that inhibits the rate of cold-induced microtubule disassembly; Inactive; format: functional
SMILES,IC50 (KB),IC50 [1],IC50 [2]
CC(=O)O[C@@]12COC1C[C@H](O)C1C(=O)[C@H](O)C3=C(C)[C@@H](OC(=O)[C@H](O)[C@@H](NC(=O)NCC(=O)N[C@@H](CO)C(=O)N[C@@H](Cc4ccc(O)cc4)C(=O)O)c4ccccc4)C[C@@](O)([C@@H](OC(=O)c4ccccc4)C12)C3(C)C (some centres undefined),1050 nM,1000 nM,–
CC(=O)O[C@@]12COC1C[C@H](O)C1C(=O)[C@H](O)C3=C(C)[C@@H](OC(=O)[C@H](O)[C@@H](NC(=O)N[C@H](C(=O)O)C(C)C)c4ccccc4)C[C@@](O)([C@@H](OC(=O)c4ccccc4)C12)C3(C)C (some centres undefined),670 nM,800 nM,–
CC(=O)O[C@@]12COC1C[C@H](O)C1C(=O)[C@H](O)C3=C(C)[C@@H](OC(=O)[C@H](O)[C@@H](NC(=O)N[C@H](C(=O)N4CCC[C@H]4C(=O)NCC(=O)NCC(=O)O)C(C)C)c4ccccc4)C[C@@](O)([C@@H](OC(=O)c4ccccc4)C12)C3(C)C (some centres undefined),> 10000 nM,500 nM,–
CC(=O)O[C@@]12COC1C[C@H](O)C1C(=O)[C@H](O)C3=C(C)[C@@H](OC(=O)[C@H](O)[C@@H](NC(=O)N[C@H](C(=O)N4CCC[C@H]4C(=O)NCC(=O)O)C(C)C)c4ccccc4)C[C@@](O)([C@@H](OC(=O)c4ccccc4)C12)C3(C)C (some centres undefined),> 10000 nM,600 nM,–
CC(=O)O[C@@]12COC1C[C@H](O)C1C(=O)[C@H](O)C3=C(C)[C@@H](OC(=O)[C@H](O)[C@@H](NC(=O)N[C@H](C(=O)N4CCC[C@H]4C(=O)NCC(=O)NCC(=O)OCc4ccccc4)C(C)C)c4ccccc4)C[C@@](O)([C@@H](OC(=O)c4ccccc4)C12)C3(C)C (some centres undefined),4000 nM,300 nM,–
COC(=O)[C@H](CCSC)NC(=O)[C@H](Cc1ccccc1)NC(=O)[C@@H](NC(=O)N[C@@H](c1ccccc1)[C@@H](O)C(=O)O[C@H]1C[C@@]2(O)[C@@H](OC(=O)c3ccccc3)C3C(C(=O)[C@H](O)C(=C1C)C2(C)C)[C@@H](O)CC1OC[C@]13OC(C)=O)C(C)C (some centres undefined),1100 nM,2600 nM,–
CC(=O)O[C@@]12COC1C[C@H](O)C1C(=O)[C@H](O)C3=C(C)[C@@H](OC(=O)[C@H](O)[C@@H](NC(=O)N[C@H](C(=O)N4CCC[C@H]4C(=O)O)C(C)C)c4ccccc4)C[C@@](O)([C@@H](OC(=O)c4ccccc4)C12)C3(C)C (some centres undefined),4500 nM,1700 nM,–

# Now those with a lower IC50 (KB), led by results:
IC50 (KB),IC50 [1],IC50 [2],SMILES
100 nM,400 nM,–,CC(=O)O[C@@]12COC1C[C@H](O)C1C(=O)[C@H](O)C3=C(C)[C@@H](OC(=O)[C@H](O)[C@@H](NC(=O)N[C@H](C(=O)N4CCC[C@H]4C(=O)NCC(=O)OCc4ccccc4)C(C)C)c4ccccc4)C[C@@](O)([C@@H](OC(=O)c4ccccc4)C12)C3(C)C (some centres undefined)
90 nM,–,Not Active,CC(=O)O[C@@]12COC1C[C@H](O)C1C(=O)[C@H](O)C3=C(C)[C@@H](OC(=O)[C@H](O)[C@@H](NC(=O)NCC(=O)N[C@@H](COCc4ccccc4)C(=O)N[C@@H](Cc4ccc(OCc5ccccc5)cc4)C(=O)OCc4ccccc4)c4ccccc4)C[C@@](O)([C@@H](OC(=O)c4ccccc4)C12)C3(C)C (some centres undefined)
50 nM,500 nM,–,CC(=O)O[C@@]12COC1C[C@H](O)C1C(=O)[C@H](O)C3=C(C)[C@@H](OC(=O)[C@H](O)[C@@H](NC(=O)N[C@H](C(=O)N4CCC[C@H]4C(=O)OCc4ccccc4)C(C)C)c4ccccc4)C[C@@](O)([C@@H](OC(=O)c4ccccc4)C12)C3(C)C (some centres undefined)
4 nM,800 nM,–,CC(=O)O[C@@]12COC1C[C@H](O)C1C(=O)[C@H](O)C3=C(C)[C@@H](OC(=O)[C@H](O)[C@@H](NC(=O)N[C@H](C(=O)OCc4ccccc4)C(C)C)c4ccccc4)C[C@@](O)([C@@H](OC(=O)c4ccccc4)C12)C3(C)C (some centres undefined)
1 nM,500 nM,–,CC(=O)O[C@@]12COC1C[C@H](O)C1C(=O)[C@H](O)C3=C(C)[C@@H](OC(=O)[C@H](O)[C@@H](NC(=O)OC(C)(C)C)c4ccccc4)C[C@@](O)([C@@H](OC(=O)c4ccccc4)C12)C3(C)C (some centres undefined)

# Reference: ChEMBL document CHEMBL1140396, “Novel C2-C3' N-peptide linked macrocyclic taxoids. Part 1: Synthesis and biological activities of docetaxel analogues with a peptide side chain at C3'” (Bioorg Med Chem Lett, 2005)
